Experimental data taken from patent publication US20250171762A1, “THERAPEUTICAL PEPTIDOMIMETIC” (UNIVERSITA' DEGLI STUDI DI ROMA "LA SAPIENZA", priority 2021, published 2025).
Entries after “also recorded” stand apart in the source; their conditions may differ. Non-standard residues stand in square brackets, D forms with d. Residues, ends and D or L forms follow the SMILES beside them. No end group written: not given here.

Tests used:
[1] = system: m·3243A>G mutant cybrids, m·8344A>G mutant cybrids and healthy control cells; experiment: Mitochondrial ToxGlo Assay (cyto- and mitotoxicity)
Procedure: Images show the effect of increasing PMT concentrations on healthy and mutant cells, compared with the effect of a cytotoxic (C1) and a mitotoxic (C2) agent, evaluated using the Mitochondrial ToxGlo™ Assay.
The X and Y axis show the compounds incubated with cells and the ratio between fluorescent and luminescent signal, respectively. In this assay, fluorescence increase indicates a decrease in cell membrane integrity, and luminescence decrease indicates a decrease in cellular ATP levels. […] The horizontal black line represents fluorescence/luminescence signal ratio of untreated cells. WT: wild type; 3243: cells bearing the mutation m·3243A>G in mt-tRNA^Leu(UUR); L-8344 and H-8344: cells bearing low and high load of mutation m·8344A>G in mt-tRNA^Lys.
Cybrids were plated on a 96-well plate in normal growth conditions (i.e., glucose medium) and treated with different PMT concentrations. […] Fluorescence and luminescence were measured with a GloMax Multi+Luminometer. […]
Mitochondrial toxicity exerted by PMT was measured using the Mitochondrial ToxGlo™ Assay (Promega Italia Srl., Milano, Italy) according to the manufacturer's protocol. […] Subsequently, cells were incubated with specific reagents and fluorescence or luminescence were measured with a GloMax Multi+Luminometer (Promega Italia Srl., Milano, Italy).

[2] = system: cybrids bearing the m·3243A>G mutation in mt-tRNA^Leu(UUR); experiment: Fluorescence confocal microscopy of Cy5-linked constructs, uptake and mitochondrial co-localization; assay type: cell-based, human; settings: 0.25 μM, 24 hours, Mitotracker Red
Source text: Top row (constructs): exogenously administered constructs covalently linked to a fluorescent dye (Cy5) are localized within cells.
Middle row (Mitotracker red): mitochondria within the same cells shown in the top row are highlighted by Mitotracker red, a dye able to link specifically and exclusively to mitochondria.
The cells used for the experiments are trans-mitochondrial hybrids (hereafter named cybrids) bearing the m·3243A>G mutation in mt-tRNA^Leu(UUR), which is associated with the MELAS syndrome.
Cells were incubated for 24 hours with 0.25 μM of constructs. Half an hour before imaging, cells were stained with Mitotracker Red. Finally, fluorescence signals were detected with a laser scanning confocal microscope. PCC: Pearson's Correlation Coefficient (mean±SEM of six images).
Constructs made of compounds listed in Table 1 linked to the Cy5 fluorophore via maleimide cross-linker, were administered to sub-confluent cybrid cell cultures at 0.25 μM in glucose medium. […] The fluorescence images were analyzed with the ImageJ software (14, https://imagej.nih.gov/ij/, 1997-2018) to determine the Pearson's correlation coefficient.
The uptake and localization of Cy5-conjugated constructs in cybrids was assessed by flow cytometry, confocal microscopy, and immunoblot analysis on isolated mitochondria (FIG. 1). […]

[3] = system: m·3243A>G mt-tRNA^Leu(UUR) mutant cybrids; experiment: Cell viability, Trypan blue dye exclusion, galactose vs glucose medium; assay type: cell-based, human; settings: 5 μM, galactose medium, 24 hours
Procedure: For viability assessment, cells were plated in either glucose or galactose medium. The reason for this is that a viability phenotype can be appreciated in cells growing on galactose, which forces cells to rely on mitochondrial respiration, but not in cells growing on glucose. After 24 hours incubation, the number of viable cells in the galactose medium was normalized to the number of viable cells in glucose at the same time point, which represents the normal growth condition. Data are compared with the value of mutant cells incubated with vehicle only. Mean±SEM of at least three independent experiments is shown.
For viability assessment, cells were plated in either glucose or galactose medium. The reason for this is that a viability phenotype can be appreciated in cells growing on galactose, which forces cells to rely on mitochondrial respiration, but not in cells growing on glucose. After 24 hours incubation the number of viable cells in galactose medium was normalized to the number of viable cells in glucose (that represents the normal growth condition) at the same time point. Data are compared with the value of mutant cells incubated with vehicle only. Means±SEM of at least two independent experiments are shown.
Previously established osteosarcoma derived (143B.TK-) cybrid cell lines from patients, which bear either the m·3243A>G mutation in mt-tRNA^Leu(UUR) or the m·8344A>G mutation in mt-tRNA^Lys, and controls were used (generous gift from Dr Valeria Tiranti and Dr Valerio Carelli).
Cybrid cells were cultured in Dulbecco's modified Eagle's medium (DMEM), supplemented with 4.5 g/l d-glucose, 10% foetal bovine serum (FBS), 2 mM I-glutamine, 50 μg/ML uridine, 100 U/mL penicillin, and […] (referred to as glucose medium) in a humidified atmosphere of 95% air and 5% CO2 at 37° C. For cell viability experiments, cells were grown either in glucose medium or in glucose-free DMEM, supplemented with 5 mM galactose, […] sodium pyruvate, and 10% FBS (referred to as galactose medium). The reason for using the latter medium is that a pathological phenotype can be appreciated in cells growing on galactose, which forces cells to rely on mitochondrial respiration, but not in cells growing on glucose.
[…] Cells were switched in glucose or galactose and after 24 hours cell viability was measured by the Trypan blue dye exclusion assay. Cells were harvested with 0.25% trypsin and 0.2% EDTA, washed, suspended in PBS in the presence of Trypan blue solution (Sigma-Aldrich) at 1:1 ratio and counted using a hemocytometer. The number of viable cells in galactose medium was expressed as a percentage of the number of cells in glucose medium.
(§1) To evaluate the effect of the compounds on viability, cybrids were grown in glucose-free medium supplemented with galactose (galactose medium), a condition that both forces cells to rely on the mt respiratory chain for ATP synthesis and causes a significant growth reduction in the presence of mutations.
as §1, with “PMT and M-PMT” for “the compounds”

[4] = Plasma stability: incubation in human plasma, UPLC-MS quantification; assay type: in vitro ADME; settings: for plasma stability compared with another peptide: human plasma, FIG. 4; for degradation in human plasma: no time stated
Procedure: Panel B. Time course decay of β32_33, PMT, PMT-8a and PMT-8b incubated up to 72 h with human plasma from four healthy subjects. […] The Y axis indicates the signal intensity of the four peptides. Samples of plasma were obtained from healthy volunteers and immediately used for the analysis. Either β32_33 peptide or PMT for the experiment in panel A, and β32_33 peptide, PMT, PMT-8a or PMT-8b for the experiment in panel B, was incubated in plasma at a final concentration of 0.2 mM, at 37° C., up to 3 h (A) or 72 h (B). At the indicated time points, i.e., T0 and 3 h (A) or T0, 1.5, 3, 6 and 72 h (B), aliquots of 200 μL were treated with 3 volumes of acetonitrile containing 1% formic acid and extracted by a solid phase extraction system to remove proteins and phospholipids. Samples were dried under vacuum, resuspended in 100 μL of 0.1% formic acid containing 5% acetonitrile, and analyzed with a Water Acquity H-Class UPLC system equipped with a single-quadruple mass detector with electrospray ionization source. Samples were separated onto a reverse phase C18 column by performing a gradient with two mobile phases consisting of 0.1% formic acid in water and 0.1% formic acid in acetonitrile at a flow rate of 0.5 mL/min. Quantification was performed by Selected lon Recording (SIR): at m/z=917.88, corresponding to the [M+2 H]^2+ion obtained from either β32_33 or PMT; at m/z=961.42, corresponding to the [M+H]^+ion obtained from PMT-8a; and at m/z=869.48, corresponding to the [M+H]^+ion obtained from PMT-8b.
In order to evaluate whether compounds (βp and d-βp) are stable in blood or hydrolyzed by plasma peptidases, we set up a chromatographic assay to evaluate compound concentration after incubation in human plasma.
Blood was drawn by venipuncture in vacutainer containing EDTA as an anticoagulant.
Two different samples from healthy volunteers were used. Plasma was separated by centrifugation and immediately used for the experiments. Each compound was dissolved in 500 uL plasma at a final concentration of 0.2 mM, and split into two aliquots, one of which was immediately analyzed to assess the basal compound level; the other was incubated at 37° C. for 3 hours under gentle shaking. In order to perform chromatographic analysis the samples were treated with 3 volumes of acetonitrile containing 1% formic acid, and then extracted by using the Ostro™ pass-through sample preparation system to remove proteins and phospholipids. Samples were dried under vacuum and then resuspended in 100 uL of 0.1% formic acid containing 5% acetonitrile, then directly injected onto the chromatographic column.
Chromatographic analyses were performed on a Water Acquity H-Class UPLC system (Waters, Milford, MA, USA), including a quaternary solvent manager (QSM), a sample manager with a flow through needle system (FTN), a photodiode array detector (PDA) and a single-quadruple mass detector with electrospray ionization source (ACQUITY QDa). Analyses were performed on a reverse phase C18 column (75 mm×3.2 mm i.d., 2.5 μm particle size). The mobile phase was solvent A, 0.1% formic acid in water, and solvent B, 0.1% formic acid in acetonitrile. The flow rate was 0.5 mL/min, the column temperature was set at 25° C. and the elution was performed by linearly increasing the concentration of solvent B up to 70% in 7 minutes. Mass spectrometric detection was performed in the positive electrospray ionization mode, using nitrogen as the nebulizer gas. Analyses were performed in the Total lon Current (TIC) mode with a mass range of 100-1200 m/z. The capillary voltage was 0.8 kV, cone voltage 8 V, ion source temperature 120° C. and probe temperature 600° C. Quantification of each compound was performed by Selected lon Recording (SIR) at m/z 917.88, corresponding to the […]

remaining at 72 h, 0.2 mM ([4]; human, human plasma from healthy volunteers, second experiment, plasma of four healthy volunteers, 72 h, read-out: peptide present after incubation in plasma)	Molecule	effect on fluorescence and luminescence (positive controls) ([1]; 400 μg/ml digitonin (C1) or 100 μl sodium azide (C2), three hours)	penetration of cell membranes and co-localization with mitochondria [2]	viability of mutant cybrids vs non treated mutant cells [3]	plasma stability compared with another peptide [4]	degradation in human plasma [4]	cyto- and mito-toxicity ([1]; 5, 10, 20 μM (up to 20 μM), mutant and wild-type cells)	detectable degradation in plasma ([4]; second experiment, plasma of four healthy volunteers, up to 72 h)
–	[N-]=[N+]=[N-] [sodium azide, reference compound]	a decrease in luminescence and has no effect on fluorescence	–	–	–	–	–	–
80%	CC[C@@H](C)[C@@H](NC(=O)[C@@H](CC(C)C)NC(=O)[C@@H](C)NC(=O)[C@H](NC(=O)[C@@H](CCCNC(=N)N)NC(=O)[C@H]1CCCN1C(=O)[C@@H](CO)NC(=O)[C@H](N)CC(C)C)[C@H](C)O)C(=O)O [PMT-8b, d(L)d(S)d(P)d(R)d(T)d(A)d(L)d(I)] (H-[dL][dS][dP][dR][dT][dA][dL][dI]-OH; N-terminus and C-terminus assumed)	–	Penetrate Cell Membranes and Co-Localize with Mitochondria	significantly improved	even more stable than the full-length 16-residue long PMT; also recorded: slower degradation than the β32_33 peptide	does not undergo degradation at all	–	–
–	d(K)d(K)d(S)d(F)d(L)d(S)d(P)d(R) ([dK][dK][dS][dF][dL][dS][dP][dR]) [PMT-8a, PMT fragment comprising PMT residues 1-8]	–	Penetrate Cell Membranes and Co-Localize with Mitochondria	–	even more stable than the full-length 16-residue long PMT; also recorded: slower degradation than the β32_33 peptide	does not undergo degradation at all	neither cytotoxic nor mitotoxic	did not undergo detectable degradation
